Results: patent publication US8637557B2, “Aminothiazole derivative” (Taisho Pharmaceutical Co., Ltd, priority 2009, dated 2014)
pIC50: −log10 of the molar value. Like-named read-outs stand apart in the source and are kept apart here.

Biological target: T1, human PI 3-kinase p120γ (Homo sapiens, UniProt P48736)
T1 construct: purchased Millipore Corporation
Assay: PI 3-kinase p120γ enzyme activity inhibition test
Assay type: biochemical
Details: ATP 10.0 μM, PIP2-PS 5.0 μM, 30° C., 2 hours
Description: Using human PI 3-kinase p120γ (manufactured by Millipore Corporation) and a mixed micellized product (hereinafter abbreviated as PIP2-PS) of the substrate thereof, L-a-Phosphatidyl-D-myo-inositol-4,5-bisphosphate (product of Calbiochem, hereinafter abbreviated as PIP2), and L-a-Phosphatidyl-L-Serine (manufactured by Sigma, hereinafter abbreviated as PS), the compound of the present invention was examined for the inhibitory action on PI3 Kinase p120γ enzyme activity (Km=8.9 μM for ATP, Km=4.0 μM for PIP2-PS).
PIP2-PS was prepared by mixing 500 μM of PIP2 and 2.5 nM of PS and sonicating the mixture for 40 minutes while ice cooling to cause micellization. ATP (final concentration 10.0 μM), [γ-^33P] ATP (final concentration 10 μCi/ml), PIP2-PS (final concentration 5.0 μM) and DMSO solutions of the test compound in different concentrations (compound final concentration 1.0×10^−5 to 2.4×10^−12 M, DMSO final concentration 0.1%) were added to PI 3-kinase p120γ, stirred and reacted at 30° C. for 2 hours. Using Phospholipid-Coated FlashPlate Microplates, 96-Well and Phospholipid FlashPlate Coating Buffer (both manufactured by PerkinElmer Co., Ltd.), PIP2-PS and phosphorylated PIP2-PS were allowed to be adsorbed to the well wall of the plate and collected. The well was washed twice with PBS (Phosphate-Buffered Saline) and dried. The radioactivity was measured using Top Count NXT (manufactured by PerkinElmer Co., Ltd.), whereby the phosphorylated amount (a) of PIP2-PS at the time of compound addition was calculated.
The same procedure was carried out in the absence of the test compound and the phosphorylated amount (b) of PIP2-PS was calculated. Further, the same procedure was carried out in the absence of both of the substrate and the test compound, and the PIP2-PS phosphorylated amount (c) of the background was calculated.
The PI3 Kinase p120γ enzyme activity suppression rate of the compound was calculated by the following formula. Suppression rate (%)=[1−(a−c)/(b−c)]×100
More specifically, using the suppression rate by the test compound of different concentrations, the IC50 value was calculated according to the dose-dependent inhibition curve analyzed by a data analysis software Origin (Lightstone Corp.) and used as the inhibitory activity index.

[1] = read-out: PI3Kγ (IC50 value class)

T1 sequence (P48736 whole entry): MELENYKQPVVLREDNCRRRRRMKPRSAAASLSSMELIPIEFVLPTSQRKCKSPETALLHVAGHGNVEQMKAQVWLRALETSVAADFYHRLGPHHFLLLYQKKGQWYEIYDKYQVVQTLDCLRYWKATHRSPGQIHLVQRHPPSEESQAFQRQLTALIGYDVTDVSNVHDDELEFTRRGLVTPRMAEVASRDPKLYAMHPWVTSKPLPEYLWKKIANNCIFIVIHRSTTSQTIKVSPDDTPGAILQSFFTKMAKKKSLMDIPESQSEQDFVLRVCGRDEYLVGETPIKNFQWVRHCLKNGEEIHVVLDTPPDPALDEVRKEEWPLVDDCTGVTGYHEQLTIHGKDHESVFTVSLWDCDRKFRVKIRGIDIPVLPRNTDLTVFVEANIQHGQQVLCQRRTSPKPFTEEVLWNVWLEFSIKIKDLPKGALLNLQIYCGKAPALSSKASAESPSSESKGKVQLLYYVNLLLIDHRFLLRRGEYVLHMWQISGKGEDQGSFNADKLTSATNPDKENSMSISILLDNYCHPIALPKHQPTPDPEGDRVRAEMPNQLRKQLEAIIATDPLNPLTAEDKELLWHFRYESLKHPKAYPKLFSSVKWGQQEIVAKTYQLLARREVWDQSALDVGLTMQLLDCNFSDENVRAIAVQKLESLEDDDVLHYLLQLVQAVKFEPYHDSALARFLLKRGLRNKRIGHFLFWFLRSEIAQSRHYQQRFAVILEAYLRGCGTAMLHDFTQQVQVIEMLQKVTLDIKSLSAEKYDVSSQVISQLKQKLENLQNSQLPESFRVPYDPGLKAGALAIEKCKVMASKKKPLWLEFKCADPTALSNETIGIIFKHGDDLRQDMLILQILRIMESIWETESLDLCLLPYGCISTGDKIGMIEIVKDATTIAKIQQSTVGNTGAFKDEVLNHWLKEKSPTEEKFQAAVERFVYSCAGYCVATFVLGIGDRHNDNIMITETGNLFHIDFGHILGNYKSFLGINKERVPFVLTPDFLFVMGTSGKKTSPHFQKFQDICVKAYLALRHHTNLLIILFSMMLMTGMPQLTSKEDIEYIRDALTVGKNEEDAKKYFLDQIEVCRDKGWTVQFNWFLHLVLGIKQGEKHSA

| Compound | pIC50 [1] | pIC50 (read-out: IC50 value) |
| --- | --- | --- |
| CNC(=O)c1noc(-c2sc(NC(C)=O)nc2C)n1 [Example 78] | 6.30 to 7.00 | – |
| CNCc1noc(-c2sc(NC(C)=O)nc2C)n1 [Example 79] | 5.00 to 6.30 | – |
| CC(=O)Nc1nc(C)c(-c2nc(CC3CC3)no2)s1 [Example 80] | > 7.00 | – |
| CC(=O)Nc1nc(C)c(-c2nc(C(C)NS(C)(=O)=O)no2)s1 (stereo not shown) [Example 81] | 5.00 to 6.30 | – |
| CC(=O)Nc1nc(C)c(-c2nc(CCC(C)C)no2)s1 [Example 82] | > 7.00 | 7.06 |
| CC(=O)Nc1nc(C)c(-c2nc(C3CC3)no2)s1 [Example 83] | > 7.00 | – |
| COC(C)(C)Cc1noc(-c2sc(NC(C)=O)nc2C)n1 [Example 84, N-{5-[3-(2-methoxy-2-methylpropyl)-1,2,4-oxadiazol-5-yl]-4-methyl-1,3-thiazol-2-yl}acetamide] | 6.30 to 7.00 | – |
| CC(=O)Nc1nc(C)c(-c2nc(CC(C)(C)C(C)O)no2)s1 (stereo not shown) [Example 85] | > 7.00 | – |
| CC(=O)Nc1nc(C)c(-c2nc(CC(C)(C)C(C)=O)no2)s1 [Example 86] | > 7.00 | – |
| CC(=O)Nc1nc(C)c(-c2nc(N3CCOCC3)no2)s1 [Example 87, N-{4-methyl-5-[3-(morpholin-4-yl)-1,2,4-oxadiazol-5-yl]-1,3-thiazol-2-yl}acetamide] | 6.30 to 7.00 | – |
| CC(=O)Nc1nc(C)c(-c2nc(C(=O)C(C)(C)C)no2)s1 [Example 88] | 6.30 to 7.00 | – |
| CC(=O)Nc1nc(C)c(-c2nc(CCN3CCCC3=O)no2)s1 [Example 89] | 5.00 to 6.30 | – |
| CC(=O)Nc1nc(C)c(-c2nc(C(=O)N3CC(O)C3)no2)s1 [Example 90] | 6.30 to 7.00 | – |
| CC(=O)Nc1nc(C)c(-c2nc(C(=O)NCC(C)O)no2)s1 (stereo not shown) [Example 91] | 6.30 to 7.00 | – |
| CC(=O)Nc1nc(C)c(-c2nc([C@H]3CCCO3)no2)s1 [Example 92] | 6.30 to 7.00 | – |
| CC(=O)Nc1nc(C)c(-c2nc(N3CCCC(O)C3)no2)s1 (stereo not shown) [Example 93] | > 7.00 | – |
| CC(=O)Nc1nc(C)c(-c2nc(CC(C)(C)S(=O)(=O)NC(C)(C)C)no2)s1 [Example 94] | 6.30 to 7.00 | – |
| CC(=O)Nc1nc(C)c(-c2nc(CC(C)(C)CF)no2)s1 [Example 95] | > 7.00 | – |
| CC(=O)Nc1nc(C)c(-c2nc(C(=O)NC3COC3)no2)s1 [Example 96] | 6.30 to 7.00 | – |
| CCC(O)C(C)(C)Cc1noc(-c2sc(NC(C)=O)nc2C)n1 (stereo not shown) [Example 97] | > 7.00 | – |
| CC(=O)Nc1nc(C)c(-c2nc(/C=C(\C)CO)no2)s1 [Example 98] | > 7.00 | – |
| CC(=O)Nc1nc(C)c(-c2nc(Cn3cccn3)no2)s1 [Example 99] | 5.00 to 6.30 | – |
| CC(=O)Nc1nc(C)c(-c2nc(CC(C)(C)C(O)c3ccccc3)no2)s1 (stereo not shown) [Example 100] | 6.30 to 7.00 | – |
| CC(=O)Nc1nc(C)c(-c2nc(C3CC3(C)C)no2)s1 (stereo not shown) [Example 101] | > 7.00 | – |
| CC(=O)Nc1nc(C)c(-c2nc(N3CC[C@H](O)C3)no2)s1 [Example 102] | 6.30 to 7.00 | – |
| CC(=O)Nc1nc(C)c(-c2nc(N3CC[C@@H](O)C3)no2)s1 [Example 103] | 6.30 to 7.00 | – |
| CCOC(=O)C(C)(C)Cc1noc(-c2sc(NC(C)=O)nc2C)n1 [Example 105] | 6.30 to 7.00 | – |

Results, then the compound that gave them:

| pIC50 [1] | pIC50 (read-out: IC50 value) | Compound |
| --- | --- | --- |
| > 7.00 | – | CC(=O)Nc1nc(C)c(-c2nc(CC(C)(C)C(C)(C)O)no2)s1 [Example 106] |
| 6.30 to 7.00 | – | CC(=O)Nc1nc(C)c(-c2nc(CC(C)(C)S(N)(=O)=O)no2)s1 [Example 107] |
| > 7.00 | – | CC(=O)Nc1nc(C)c(-c2nc(CC(C)(C)C(=O)O)no2)s1 [Example 108] |
| > 7.00 | – | CC(=O)Nc1nc(C)c(-c2nc(CC(C)(C)C(N)=O)no2)s1 [Example 111] |
| > 7.00 | – | CC(=O)Nc1nc(C)c(-c2nc(C3CCCOC3)no2)s1 (stereo not shown) [Example 112] |
| 6.30 to 7.00 | – | CC(=O)Nc1nc(C)c(-c2nc(-c3cc[nH]c(=O)c3)no2)s1 [Example 113] |
| > 7.00 | – | Cc1nc(N)sc1-c1nc(C(C)(C)C)no1 [Example 114] |
| 6.30 to 7.00 | – | Cc1nc(NC(=O)C(C)C)sc1-c1nc(-c2cccnc2)no1 [Example 115, 2-Methyl-N-{4-methyl-5-[3-(pyridin-3-yl)-1,2,4-oxadiazol-5-yl]-1,3-thiazol-2-yl}propanamide] |
| > 7.00 | – | COCC(=O)Nc1nc(C)c(-c2nc(-c3cccnc3)no2)s1 [Example 116] |
| > 7.00 | – | Cc1nc(NC(=O)NCCC(=O)OC(C)(C)C)sc1-c1nc(-c2cccnc2)no1 [Example 117, Tert-butyl N-({4-methyl-5-[3-(pyridin-3-yl)-1,2,4-oxadiazol-5-yl]-1,3-thiazol-2-yl}carbamoyl)-β-alaninate] |
| > 7.00 | – | CCOC(=O)CCCC(=O)Nc1nc(C)c(-c2nc(-c3cccnc3)no2)s1 [Example 118] |
| > 7.00 | – | CCOC(=O)CCNC(=O)Nc1nc(C)c(-c2nc(-c3cccnc3)no2)s1 [Example 119] |
| > 7.00 | – | Cc1nc(NC(=O)NCCO)sc1-c1nc(-c2cccnc2)no1 [Example 120] |
| > 7.00 | – | Cc1nc(NC(=O)NCCN2CCOCC2)sc1-c1nc(-c2cccnc2)no1 [Example 121] |
| > 7.00 | – | COCCNC(=O)Nc1nc(C)c(-c2nc(-c3cccnc3)no2)s1 [Example 122] |
| > 7.00 | – | Cc1nc(NC(N)=O)sc1-c1nc(-c2cccnc2)no1 [Example 124] |
| > 7.00 | – | Cc1nc(NC(=O)NCCCC(=O)OC(C)(C)C)sc1-c1nc(-c2cccnc2)no1 [Example 125] |

| pIC50 [1] | pIC50 (read-out: IC50 value) | Compound |
| --- | --- | --- |
| > 7.00 | – | Cc1nc(NC(=O)NCC(=O)OC(C)(C)C)sc1-c1nc(-c2cccnc2)no1 [Example 126] |
| > 7.00 | – | Cc1nc(NC(=O)NCCCN(C)C)sc1-c1nc(-c2cccnc2)no1 [Example 127] |
| > 7.00 | – | COCCCC(=O)Nc1nc(C)c(-c2nc(-c3cccnc3)no2)s1 [Example 128] |
| > 7.00 | – | Cc1nc(NC(=O)OCCC(=O)OC(C)(C)C)sc1-c1nc(-c2cccnc2)no1 [Example 129, Tert-butyl-3-[({4-methyl-5-[3-(pyridin-3-yl)-1,2,4-oxadiazol-5-yl]-1,3-thiazol-2-yl}carbamoyl)oxy]propanoate] |
| > 7.00 | – | Cc1nc(NC(=O)NCCCOC(C)(C)C)sc1-c1nc(-c2cccnc2)no1 [Example 130] |
| > 7.00 | – | Cc1nc(NC(=O)NCCC(=O)N(C)C)sc1-c1nc(-c2cccnc2)no1 [Example 131] |
| > 7.00 | – | Cc1nc(NC(=O)NCCC(=O)NC(C)(C)C)sc1-c1nc(-c2cccnc2)no1 [Example 132] |
| > 7.00 | – | Cc1nc(NC(=O)NCCS(=O)(=O)NC(C)(C)C)sc1-c1nc(-c2cccnc2)no1 [Example 133] |
| > 7.00 | – | Cc1nc(NC(=O)NCCNC(=O)OC(C)(C)C)sc1-c1nc(-c2cccnc2)no1 [Example 134] |
| > 7.00 | – | Cc1nc(NC(=O)NCCOC(=O)C(C)(C)C)sc1-c1nc(-c2cccnc2)no1 [Example 135] |
| > 7.00 | – | Cc1nc(NC(=O)NCCC(=O)O)sc1-c1nc(-c2cccnc2)no1 [Example 136] |
| 5.00 to 6.30 | – | Cc1nc(NC(=O)N2CCC(O)CC2)sc1-c1nc(-c2cccnc2)no1 [Example 137] |
| > 7.00 | – | Cc1nc(NC(=O)NCCN)sc1-c1nc(-c2cccnc2)no1 [Example 138] |
| > 7.00 | – | Cc1nc(NC(=O)NCCNC(=O)C(C)(C)C)sc1-c1nc(-c2cccnc2)no1 [Example 139] |
| > 7.00 | – | Cc1nc(NC(=O)NCCC(=O)OC(C)C)sc1-c1nc(-c2cccnc2)no1 [Example 140] |
| > 7.00 | – | Cc1nc(NC(=O)NCCC(=O)OC(C)(C)C)sc1-c1nc(-c2cncnc2)no1 [Example 141] |
